According to patent US20240287022A1 (Merck Sharp & Dohme LLC, priority 2021, published 2024):

Target: recombinant IL4I1 (Homo sapiens (Human), UniProt Q96RQ9)
Assay: IL4I1 Enzymatic Assay (Amplex Red/HRP coupled H2O2 detection)
Format: biochemical
Conditions: 1 nM IL4I1, 1 mM each Phe/Tyr/Trp, four-hour pre-incubation, 120 minutes reaction, top compound concentration of 10000 nM
Description: Interleukin 4 inducible protein 1 (IL4I1) is an L-amino oxidase that catalyzes the oxidation of aromatic residues (Phe, Trp and Tyr): L-amino acid+H2O+O2→2-oxo acid+NH3+H2O2. Equal molar of H2O2 and the corresponding alpha-ketoacid are produced when IL4I1 and substrate are added. In this assay, the hydrogen peroxide generated by IL4I1 are then detected through a coupled reaction with Amplex Red (10-acetyl-3,7-dihydroxyphenoxazine) and […] (HRP) to produce Resorufin product that could be detected in the form of fluorescence signals. The assessment of the inhibitory effect of small molecules (EC50) on IL4I1 is measured by the effectiveness of the compounds to inhibit the production of H2O2.
Using this assay, the potency (EC50) of each compound was determined from a ten-point (1:3 serial dilution; top compound concentration of 10000 nM) titration curve using the following outlined procedure. To each well of a black flat-bottom Greiner (Cat #781076) 384 well-plate, 25 nL of compound (0.1% DMSO in final assay volume of 25 μL) was dispensed, followed by the addition of 12.5 μL of 1× assay buffer (50 mM Hepes 7.0 and 0.005% Tween20 (Sigma, Cat #P8341; low peroxide grade)) containing 2 nM of recombinant IL4I1 (R&D Systems, Cat #5684-AO-020). Plates were placed in an ambient temperature humidified chamber for a four-hour pre-incubation with compound. Subsequently, each reaction was initiated by the addition of 12.5 μL 1× assay buffer containing 2 mM of each aromatic amino acids (Phe/Tyr/Trp), 0.1 mM Amplex Red and 2 U/mL of HRP. The final reaction in each well of 25 μL consists of 1 nM of IL4I1, 1 mM of each residues (Phe, Tyr and Trp), 0.05 mM Amplex Red and 1 U/mL of HRP. It should be noted that the concentrations of Amplex Red and HRP used here are in excess such that the conversion of H2O2 to Resorufin product occurs instantaneously and non-rate limiting. Reactions were allowed to proceed for 120 minutes followed by fluorescence readout on a Spectramax with the following set parameters: 544 nm excitation/590 nm emission, 570 nm cutoff (EnVision is an alternative reader). Dose-response curves were generated by plotting percent effect (% product conversion; Y-axis) vs. Log10 compound concentrations (X-axis). EC50 values were calculated using a non-linear regression, four-parameters sigmoidal dose-response model.

Chain of recombinant IL4I1 (Q96RQ9 22-567): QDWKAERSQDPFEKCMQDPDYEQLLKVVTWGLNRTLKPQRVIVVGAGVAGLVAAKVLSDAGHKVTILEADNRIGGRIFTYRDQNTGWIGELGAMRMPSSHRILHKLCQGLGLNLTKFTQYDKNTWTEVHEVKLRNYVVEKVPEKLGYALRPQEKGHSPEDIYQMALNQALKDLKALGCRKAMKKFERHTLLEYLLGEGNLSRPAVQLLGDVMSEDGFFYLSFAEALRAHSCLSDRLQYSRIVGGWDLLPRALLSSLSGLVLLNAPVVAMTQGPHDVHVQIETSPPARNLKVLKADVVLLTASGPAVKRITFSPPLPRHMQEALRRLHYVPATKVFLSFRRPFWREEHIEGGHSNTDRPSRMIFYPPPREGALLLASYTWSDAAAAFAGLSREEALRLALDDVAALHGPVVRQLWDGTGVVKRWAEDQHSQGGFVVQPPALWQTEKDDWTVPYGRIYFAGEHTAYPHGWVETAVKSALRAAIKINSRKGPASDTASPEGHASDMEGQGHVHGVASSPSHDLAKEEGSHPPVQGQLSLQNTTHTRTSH

| EC50 [nM] | Compound |
| --- | --- |
| 138 | O=C1CC(Cc2nnc(Cc3cc4ccccc4[nH]c3=O)o2)CC(=O)N1 [Example 37, 4-((5-((2-oxo-1,2-dihydroquinolin-3-yl)methyl)-1,3,4-oxadiazol-2-yl)methyl)piperidine-2,6-dione] |
| 11.1 | CC1(c2ccc(Cc3cc4ccccc4[nH]c3=O)cc2)CCC(=O)N1 (single isomer, unassigned) [Example 183B, (R or S)-3-(4-(2-methyl-5-oxopyrrolidin-2-yl)benzyl)quinolin-2(1H)-one] |
| 105 | CNCc1cccc2cc(Cc3cccc(OC(F)(F)F)c3)c(=O)[nH]c12 [Example 180, 8-((methylamino)methyl)-3-(3-(trifluoromethoxy)benzyl)quinolin-2(1H)-one] |
| 6.1 | O=c1[nH]c2ccccc2cc1Cc1ccc(-c2cn[nH]c2)cc1 [Example 125, 3-(4-(1H-pyrazol-4-yl)benzyl)quinolin-2(1H)-one] |
| 2 | O=C1COc2ccc(Cc3cc4ccccc4[nH]c3=O)cc2N1 [Example 155, 6-((2-oxo-1,2-dihydroquinolin-3-yl)methyl)-2H-benzo[b][1,4]oxazin-3(4H)-one] |
| 2.6 | Cn1c(=O)c(Cc2ccc(C(C)(C)O)cc2)cc2ccccc21 [Example 143, 3-(4-(2-hydroxypropan-2-yl)benzyl)-1-methylquinolin-2(1H)-one] |
| 0.5 | O=c1[nH]c2ccccc2cc1Cc1coc2ccccc12 [Example 136, 3-(benzofuran-3-ylmethyl)quinolin-2(1H)-one] |
| 15.6 | CC(=O)NCc1ccc(Cc2cc3ccccc3[nH]c2=O)c(Cl)c1 [compound 67, N-(3-chloro-4-((2-oxo-1,2-dihydroquinolin-3-yl)-methyl)benzyl)acetamide] |
| 13.8 | CC(=O)NCc1ccc(Cc2cc3ccccc3[nH]c2=O)cn1 [Example 84, N-((5-((2-oxo-1,2-dihydroquinolin-3-yl)methyl)pyridin-2-yl)methyl)acetamide] |
| 5.4 | O=C1CCc2cc(Cc3cc4ccccc4[nH]c3=O)ccc2N1 [Example 154, 3-((2-oxo-1,2,3,4-tetrahydroquinolin-6-yl)methyl)quinolin-2(1H)-one] |
| 547 | Cc1oncc1-c1nnc(Cc2cc3ccccc3[nH]c2=O)o1 [Example 29, 3-((5-(5-methylisoxazol-4-yl)-1,3,4-oxadiazol-2-yl)methyl)quinolin-2(1H)-one] |
| 2 | COc1cc(C#N)cc(Cc2cc3ccccc3[nH]c2=O)c1 [Example 133, 3-methoxy-5-((2-oxo-1,2-dihydroquinolin-3-yl)methyl)benzonitrile] |
| 1 | O=C1COc2c(Cl)cc(Cc3cc4ccccc4[nH]c3=O)cc2N1 [Example 170, 8-Chloro-6-((2-oxo-1,2-dihydroquinolin-3-yl)methyl)-2H-benzo[b][1,4]oxazin-3(4H)-one] |
| 51.1 | O=c1[nH]c2ccccc2cc1Cc1nnc(C2CCCCC2)o1 [Example 9, 3-((5-cyclohexyl-1,3,4-oxadiazol-2-yl)methyl)quinolin-2(1H)-one] |
| 60.2 | O=c1[nH]c2ccccc2cc1Cc1cnn2ncccc12 [Example 158, 3-(pyrazolo[1,5-b]pyridazin-3-ylmethyl)quinolin-2(1H)-one] |
| 2 | N#Cc1c[nH]c2ccc(Cc3cc4ccccc4[nH]c3=O)nc12 [Example 96, 5-((2-oxo-1,2-dihydroquinolin-3-yl)methyl)-1H-pyrrolo[3,2-b]pyridine-3-carbonitrile] |
| 28.2 | CS(=N)(=O)Cc1ccc(Cc2cc3ccccc3[nH]c2=O)cc1 (single isomer, unassigned) [Example 186, 3-(4-(((R or S)-methylsulfonimidoyl)methyl)benzyl)quinolin-2(1H)-one] |
| 203 | Cc1cnc(-c2nnc(Cc3cc4ccccc4[nH]c3=O)o2)s1 [Example 22, 3-((5-(5-methylthiazol-2-yl)-1,3,4-oxadiazol-2-yl)methyl)quinolin-2(1H)-one] |
| 172 | O=c1[nH]c2ccccc2cc1Cc1nnc(Cc2cnccn2)o1 [Example 31, 3-((5-(pyrazin-2-ylmethyl)-1,3,4-oxadiazol-2-yl)methyl)quinolin-2(1H)-one] |
| 0.9 | O=C1CCc2ccc(Cc3cc4ccccc4[nH]c3=O)cc21 [Example 75, 3-((3-oxo-2,3-dihydro-1H-inden-5-yl)methyl)quinolin-2(1H)-one] |

| EC50 [nM] | Compound |
| --- | --- |
| 34.8 | CC1(O)CN(C(=O)c2ccc(Cc3cc4ccccc4[nH]c3=O)cc2)C1 [compound 2, 3-(4-(3-hydroxy-3-methylazetidine-1-carbonyl)benzyl)-quinolin-2(1H)-one] |
| 70.3 | O=c1[nH]c2ccccc2cc1Cc1nnc(CC2CC2)o1 [Example 27, 3-((5-(cyclopropylmethyl)-1,3,4-oxadiazol-2-yl)methyl)quinolin-2(1H)-one] |
| 2.6 | N#CC1(c2ccc(Cc3cc4ccccc4[nH]c3=O)cc2)CC(O)C1 (single isomer, unassigned) [Example 101A, 3-hydroxy-1-(4-((2-oxo-1,2-dihydroquinolin-3-yl)methyl)phenyl)cyclobutane-1-carbonitrile] |
| 16 | COC(=O)Nc1ccc(Cc2cc3ccccc3[nH]c2=O)cc1 [Example 119, methyl (4-((2-oxo-1,2-dihydroquinolin-3-yl)methyl)phenyl)carbamate] |
| 1.4 | O=c1[nH]c2ccncc2cc1Cc1ccc2ccccc2c1 [Example 115, 3-(naphthalen-2-ylmethyl)-1,6-naphthyridin-2(1H)-one] |
| 10.9 | CC(O)C(C#N)c1ccc(Cc2cc3ccccc3[nH]c2=O)cc1 (single isomer, unassigned) [Example 102D, 3-hydroxy-2-(4-((2-oxo-1,2-dihydroquinolin-3-yl)methyl)phenyl)butanenitrile] |
| 2.2 | O=c1[nH]c2ccccc2cc1Cc1nnc(-c2cc(Cl)ccc2Cl)o1 [Example 11, 3-((5-(2,5-dichlorophenyl)-1,3,4-oxadiazol-2-yl)methyl)quinolin-2(1H)-one] |
| 20.2 | NS(=O)(=O)c1cccc(Cc2cc3ccccc3[nH]c2=O)c1 [Example 141, 3-((2-oxo-1,2-dihydroquinolin-3-yl)methyl)benzenesulfonamide] |
| 10.9 | CS(=O)(=O)NCc1ncc(Cc2cc3ccccc3[nH]c2=O)cc1Cl [Example 91, N-((3-chloro-5-((2-oxo-1,2-dihydroquinolin-3-yl)methyl)pyridin-2-yl)methyl)methanesulfonamide] |
| 12.3 | CC1CN(c2ccc(Cc3cc4cnccc4[nH]c3=O)cc2)C(=O)O1 (single isomer, unassigned) [Example 188, (R or S)-5-methyl-3-(4-((2-oxo-1,2-dihydro-1,6-naphthyridin-3-yl)methyl)phenyl)oxazolidin-2-one] |
| 5.4 | Cn1cc2c(Cc3cc4cc(F)ccc4[nH]c3=O)cccc2n1 [Example 163, 6-fluoro-3-((2-methyl-2H-indazol-4-yl)methyl)quinolin-2(1H)-one] |
| 5.2 | CC(O)C(C#N)c1ccc(Cc2cc3ccccc3[nH]c2=O)cc1 (single isomer, unassigned) [Example 102A, 3-hydroxy-2-(4-((2-oxo-1,2-dihydroquinolin-3-yl)methyl)phenyl)butanenitrile] |
| 7.3 | O=c1[nH]c2ccccc2cc1Cc1ccc(C2COCC2O)cc1 (stereo not drawn) [Example 182, 3-(4-(4-hydroxytetrahydrofuran-3-yl)benzyl)quinolin-2(1H)-one] |
| 4.1 | O=C1CC[C@@H](c2ccc(Cc3cc4ccccc4[nH]c3=O)cc2)N1 [Example 159, (S)-3-(4-(5-oxopyrrolidin-2-yl)benzyl)quinolin-2(1H)-one] |
| 169 | Cc1snnc1-c1nnc(Cc2cc3ccccc3[nH]c2=O)o1 [Example 17, 3-((5-(5-methyl-1,2,3-thiadiazol-4-yl)-1,3,4-oxadiazol-2-yl)methyl)quinolin-2(1H)-one] |
| 3.4 | CC(=O)NCc1ccc(Cc2cc3ccccc3[nH]c2=O)cc1C [Example 168, N-(2-methyl-4-((2-oxo-1,2-dihydroquinolin-3-yl)methyl)benzyl)acetamide] |
| 5.3 | O=c1[nH]c2ccccc2cc1Cc1ccc2ncccc2c1 [Example 152, 3-(Quinolin-6-ylmethyl)quinolin-2(1H)-one] |
| 6.3 | CC(C)(O)c1ccc(Cc2cc3ccccc3[nH]c2=O)cc1 [Example 160, 3-(4-(2-Hydroxypropan-2-yl)benzyl)quinolin-2(1H)-one] |
| 10 | CC(=O)NCc1ncc(Cc2cc3ccccc3[nH]c2=O)cc1F [Example 82] |
